US11613560B2, “Bicyclic peptide ligands specific for OX40” (BicycleTx Limited, priority 2019, dated 2023)

Assays:
[1] = target: T1, OX40 (Homo sapiens, UniProt P43489); experiment: Promega OX40 cell-activity assay in co-culture with tumor cells (Nectin-4 positive 4T1-D02); format: cell-based; details: co-culture with Nectin-4 positive 4T1-D02 cells; compared to OX40L and non-binding control BCY12968
T1 construct: host or cells: OX40 Jurkat cells (NF-kB luciferase reporter)
T1 sequence (P43489 29-277): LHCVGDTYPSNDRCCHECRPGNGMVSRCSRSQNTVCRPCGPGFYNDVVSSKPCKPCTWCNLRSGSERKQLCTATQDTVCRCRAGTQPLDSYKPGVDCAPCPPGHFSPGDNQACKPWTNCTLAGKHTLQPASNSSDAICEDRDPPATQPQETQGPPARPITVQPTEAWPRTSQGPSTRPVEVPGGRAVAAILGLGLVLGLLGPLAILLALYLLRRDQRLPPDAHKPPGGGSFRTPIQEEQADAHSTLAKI
Method: Promega have developed an OX40 cell-activity assay that uses NF-κB luciferase luminescence as a read-out of OX40 activation in Jurkat cells (Promega CS197704). On the day of the experiment, prepare medium by thawing FBS and adding 5% FBS to RPMI-1640. Thaw OX40 Jurkat cells in the water-bath and then add 500 μl cells to 11.5 ml pre-warmed 5 FBS RPMI-1640 medium. Add 55 μl cells/well to white cell culture plates. Harvest tumor cells from culture. 4T1 is a Nectin-4 negative murine mammary gland epithelial cancer cell and it was genetically modified to express murine Nectin-4 on the cell surface (4T1 Nectin-4 positive; clone 4T1-D02). Tumor cells were cultured to 80% confluency in vitro in RPMI1640 medium supplemented with 10% heat-inactivated FBS, 1× Penicillin/Streptomycin, 1×L-Glutamine, 20 mM HEPES and 1×NEAA (RPMI working medium). Tumor cells were trypsinized and washed two times at 1500 rpm for 5 minutes in RPMI1640 working medium prewarmed to 37° C. Count cells and resuspend at 2,000,000 cells/mL in R5 media (for 10,000 cells/well). Add 5 μL of tumour cells per well.
Proceed to dilute agonists at concentration giving the maximum fold induction and then titrate down the amount in a sterile 96 well-plate. Prepare enough reagent for duplicate samples and then perform ⅓ dilution series or 1/10 dilution series. Include positive control OX40L trimer (AcroBiosystems, R&D systems) and negative control monomeric or non-binding peptides. Add 20 μl of agonist as duplicate samples or 5% FBS RPMI-1640 alone as background control.
Co-incubate cells together with agonists for 6 hours at 37° C., 5% CO2. After 6 hours, thaw Bio-Glo™ and develop the assay at room-temperature. Add 80 μl Bio-Glo™ per well and incubate 5-10 min. Read luciferase signal on CLAIROStar plate-reader using the MARS program and normalize the fold induction relative to background (medium alone). Analyse data by transforming the data to x=log (X), then plot log (agonist) vs. response variable slope (4 parameters) to calculate EC50 values.

[2] = system: human PBMCs; experiment: Human PBMC - tumor cell co-culture assay (IL-2 by HTRF); format: cell-based; details: anti-CD3 and anti-CD28 stimulation, 48 hours
Method: 4T1, a Nectin-4 negative murine mammary gland epithelial cancer cell (4T1 Nectin-4 −ve; 4T1-Parental) and its genetically modified version expressing murine Nectin-4 on the cell surface (4T1 Nectin-4 +ve; clone 4T1-D02) were cultured to 80% confluency in vitro in RPMI1640 medium supplemented with 10% heat-inactivated FBS, 1× Penicillin/Streptomycin, 1× L-Glutamine, 20 mM HEPES and 1×NEAA (RPMI working medium). Tumor cells were trypsinized and washed two times at 1500 rpm for 5 minutes in RPMI1640 working medium prewarmed to 37° C. Four thousand tumor cells in 25 μl were plated per well in a sterile 384 well cell culture plate. Frozen human PBMCs were thawed and washed one time at 1250 rpm for 5 minutes in prewarmed RPMI1640 working medium. 20000 viable PBMCs in 50 μl RPMI1640 working medium supplemented with 250 ng/ml (2× concentration) of human anti-CD3 (clone OKT3) and 500 ng/ml (2× concentration) of human anti-CD28 (clone CD28.2) were added per respective wells containing tumor cells in 25 μl medium to obtain a […] ratio for tumor cells and PBMCs. Test compounds in DMSO were diluted in RPMI1640 working medium. An equivalent amount of DMSO was added to assay controls. […] Culture supernatant was collected at 48 hours post-treatment, and IL-2 concentrations were measured using HTRF assays (CIS Bio). Data were analyzed using GraphPad Prism.

Compound	OX40 agonism in co-culture [1]	IL-2 levels ([2]; 4T1 cells without Nectin-4 expression)	production of the cytokine IL-2 by human PBMCs ([2]; Nectin-4 expressing 4T1 cells)
CSCC[C@@H]1NC(=O)[C@@H]2CSCCC(=O)N3CN(CN(C3)C(=O)CCSC[C@H](NC(=O)CCOCCOCCOCCN(CCOCCOCCOCCn3cc(CCC(=O)NCCCC[C@H](NC(=O)[C@H](C)NC(=O)[C@@H]4CSCCC(=O)N5CN6CN(C5)C(=O)CCSC[C@H](NC(=O)[C@@H]5CCCN5C(=O)[C@H](CO)NC(=O)[C@H](Cc5ccc(O)cc5)NC(=O)[C@H](CC(C)C)NC(=O)[C@@H](NC(=O)[C@H](C)N)CSCCC6=O)C(=O)N[C@@H](Cc5c[nH]c6ccccc56)C(=O)N[C@@H](Cc5c[nH]cn5)C(=O)N5CCC[C@H]5C(=O)N[C@@H](CC(C)C)C(=O)N[C@@H](CC(N)=O)C(=O)N[C@@H](CC(=O)O)C(=O)N4)C(N)=O)nn3)CCOCCOCCOCCn3cc(CCC(=O)NCCCC[C@H](NC(=O)[C@H](C)NC(=O)[C@@H]4CSCCC(=O)N5CN6CN(C5)C(=O)CCSC[C@H](NC(=O)[C@@H]5CCCN5C(=O)[C@H](CO)NC(=O)[C@H](Cc5ccc(O)cc5)NC(=O)[C@H](CC(C)C)NC(=O)[C@@H](NC(=O)[C@H](C)N)CSCCC6=O)C(=O)N[C@@H](Cc5c[nH]c6ccccc56)C(=O)N[C@@H](Cc5c[nH]cn5)C(=O)N5CCC[C@H]5C(=O)N[C@@H](CC(C)C)C(=O)N[C@@H](CC(N)=O)C(=O)N[C@@H](CC(=O)O)C(=O)N4)C(N)=O)nn3)C(=O)N3CCC[C@H]3C(=O)N[C@@H](Cc3cccc4ccccc34)C(=O)N[C@H](CC(=O)O)C(=O)N2)C(=O)CCSC[C@@H](C(N)=O)NC(=O)[C@H](Cc2c[nH]c3ccccc23)NC(=O)[C@@H]2C[C@@H](O)CN2C(=O)[C@@H]2CCCN2C(=O)[C@H]([C@@H](C)O)NC(=O)[C@H](CO)NC(=O)[C@H](Cc2c[nH]c3ccccc23)NC(=O)[C@H](CC(=O)O)NC(=O)[C@H](CCCCNC(=N)N)NC1=O [BCY12967]	potent OX40 agonism	–	–
CSCC[C@@H]1NC(=O)[C@@H]2CSCCC(=O)N3CN(CN(C3)C(=O)CCSC[C@H](NC(=O)CCOCCOCCOCCOCCOCCOCCOCCOCCOCCOCCOCCOCCn3cc(CCC(=O)NCCCC[C@H](NC(=O)[C@H](C)NC(=O)[C@@H]4CSCCC(=O)N5CN6CN(C5)C(=O)CCSC[C@H](NC(=O)[C@@H]5CCCN5C(=O)[C@H](CO)NC(=O)[C@H](Cc5ccc(O)cc5)NC(=O)[C@H](CC(C)C)NC(=O)[C@@H](NC(=O)[C@H](C)N)CSCCC6=O)C(=O)N[C@@H](Cc5c[nH]c6ccccc56)C(=O)N[C@@H](Cc5c[nH]cn5)C(=O)N5CCC[C@H]5C(=O)N[C@@H](CC(C)C)C(=O)N[C@@H](CC(N)=O)C(=O)N[C@@H](CC(=O)O)C(=O)N4)C(N)=O)nn3)C(=O)N3CCC[C@H]3C(=O)N[C@@H](Cc3cccc4ccccc34)C(=O)N[C@H](CC(=O)O)C(=O)N2)C(=O)CCSC[C@@H](C(N)=O)NC(=O)[C@H](Cc2c[nH]c3ccccc23)NC(=O)[C@@H]2C[C@@H](O)CN2C(=O)[C@@H]2CCCN2C(=O)[C@H]([C@@H](C)O)NC(=O)[C@H](CO)NC(=O)[C@H](Cc2c[nH]c3ccccc23)NC(=O)[C@H](CC(=O)O)NC(=O)[C@H](CCCCNC(=N)N)NC1=O [BCY12141]	potent OX40 agonism	comparable to the control baseline CD3+CD28 stimulation	induced the production of the cytokine IL-2
CSCC[C@@H]1NC(=O)[C@@H]2CSCCC(=O)N3CN(CN(C3)C(=O)CCSC[C@H](NC(=O)CCOCCOCCOCCOCCOCCn3cc(CCC(=O)NCCCC[C@H](NC(=O)[C@H](C)NC(=O)[C@@H]4CSCCC(=O)N5CN6CN(C5)C(=O)CCSC[C@H](NC(=O)[C@@H]5CCCN5C(=O)[C@H](CO)NC(=O)[C@H](Cc5ccc(O)cc5)NC(=O)[C@H](CC(C)C)NC(=O)[C@@H](NC(=O)[C@H](C)NC(C)=O)CSCCC6=O)C(=O)N[C@@H](Cc5c[nH]c6ccccc56)C(=O)N[C@@H](Cc5c[nH]cn5)C(=O)N5CCC[C@H]5C(=O)N[C@@H](CC(C)C)C(=O)N[C@@H](CC(N)=O)C(=O)N[C@@H](CC(=O)O)C(=O)N4)C(N)=O)nn3)C(=O)N3CCC[C@H]3C(=O)N[C@@H](Cc3cccc4ccccc34)C(=O)N[C@H](CC(=O)O)C(=O)N2)C(=O)CCSC[C@@H](C(N)=O)NC(=O)[C@H](Cc2c[nH]c3ccccc23)NC(=O)[C@@H]2C[C@@H](O)CN2C(=O)[C@@H]2CCCN2C(=O)[C@H]([C@@H](C)O)NC(=O)[C@H](CO)NC(=O)[C@H](Cc2c[nH]c3ccccc23)NC(=O)[C@H](CC(=O)O)NC(=O)[C@H](CCCCNC(=N)N)NC1=O [BCY12721]	potent OX40 agonism	–	–
